Results taken from EP0338042B1, “COMPOSITION AND METHOD FOR TREATING HEPATITIS VIRUS INFECTIONS USING 1-(2'-DEOXY-2'-FLUORO-BETA-D-ARABINOFURANOSYL)-5-ETHYLURACIL” (priority 1987, dated 1989).

Assays:
[1] = in vivo experiments with mice; cited from earlier work
L-1210 CELLS = assay: Inhibition of thymidine incorporation into DNA; type: cell-based, rodent; conditions: Mus musculus, L1210; read-out: ED50 FOR INHIBITING THYMIDINE INCORPORATION INTO DNA, L-1210 CELLS
Vero cells = assay: Inhibition of cell growth; type: cell-based, African green monkey; conditions: Chlorocebus sabaeus, read-out: ED50 FOR INHIBITING CELL GROWTH IN VERO CELLS
[2] = test system: woodchuck hepatitis virus (WHV); assay: Inhibition of WHV replication in chronically infected woodchucks (DNA polymerase activity); type: in vivo, woodchucks (Marmota monax)
Method: All woodchucks bearing chronic active hepatitis virus (Hantz, supra) were administered FMAU twice daily by interperitoneal injections of FMAU in the following dosages:
Studies were then undertaken to evaluate FMAU and FEAU in this animal model using woodchucks naturally chronically-infected with woodchuck hepatitis virus (24). It was assumed that these nucleosides would be anabolized to their nucleoside triphosphates within the animal. WHV replication was measured periodically by the endogenous DNA polymerase activity and by the detection of WHV DNA by the dot-blot hybridization assay. Three different dosages of FMAU and FEAU were investigated. FMAU at 2 mg/kg/day x 5, (given intraperitoneally TABLE VIII
In accordance with the procedures of Example 2, the FEAU inhibition of WHV replication was further studied at different doses administered orally to woodchucks through stomach tubes. Two groups of woodchucks with different initial WHV replication values were examined.
Seven woodchucks with high WHV replication were tested. High replication was defined as over 1000 counts per minute of DNA polymerase activity, and the mean replication was 1600.
Seven woodchucks with low WHV replication were tested. Low replication was defined as lower than 1000 counts per minute of DNA polymerase activity, and the mean replication was 600-800.

HSV-2(G) [3] = assay: Plaque reduction assay in Vero cells; type: cell-based; conditions: monkey
Text: (§1) With FMAU as a lead compound, the syntheses of other 5-alkyl substituted 2′-fluoro-ara-uracils were undertaken (8, 9), including 1-(2′-deoxy-2′-fluoro-beta-D-arabinofuranosyl)-5-ethyluracil [FEAU].

HSV-1(F) [4] = assay: Plaque reduction assay in Vero cells; type: cell-based; conditions: monkey
Text: as §1

[5] = test system: simian varicella virus (SVV); assay: Simian varicella virus infection in the African green monkey
L-1210 = assay: Incorporation of 2-14C-labeled nucleoside into DNA of cells; type: cell-based, rodent; conditions: FEAU also not detectable at 100 μM
Text: (§2) There was no detectable incorporation of FEAU radioactivity into the DNA of either L-1210 or Vero cell lines, but substantial amounts of FMAU radioactivity were incorporated into the DNA of both cell lines. When HSV-1 infected Vero cells were exposed to ¹⁴C-labeled FEAU and FMAU, both nucleosides incorporated into the DNA of these virus-infected cells.

RAT BONE MARROW CELLS = assay: Inhibition of thymidine incorporation into DNA; type: cell-based; conditions: Bone marrow cell, read-out: ED50 FOR INHIBITING THYMIDINE INCORPORATION INTO DNA, RAT BONE MARROW CELLS
HL-60 CELLS = assay: Inhibition of cell growth; type: cell-based; conditions: Homo sapiens, HL-60; read-out: ED50 FOR INHIBITING CELL GROWTH IN HL-60 CELLS
[6] = patients with advanced cancer, x 5; cited from earlier work
VERO = assay: Incorporation of 2-14C-labeled nucleoside into DNA of cells; type: cell-based, African green monkey; conditions: FEAU also not detectable at 100 μM
Text: as §2

[7] = test system: HSV-1 INFECTED VERO CELLS; assay: as above; type: cell-based, African green monkey
Text: as §2

HSV-1(F) [8] = conditions: plaque reduction in Vero cells, cited from earlier work
HSV-2(G) [9] = conditions: plaque reduction in Vero cells, cited from earlier work
P-815 CELLS = assay: Inhibition of thymidine incorporation into DNA; type: cell-based, rodent; conditions: Mus musculus, P815; read-out: ED50 FOR INHIBITING THYMIDINE INCORPORATION INTO DNA, P-815 CELLS
HSV-2 (STRAIN G) = conditions: FMAU 0.5 MG/KG/DAY, cited from earlier work
[10] = 0.2 mg/kg/day, FMAU x 5, FEAU x 10

## Cc1cn([C@@H]2O[C@H](CO)[C@@H](O)[C@@H]2F)c(=O)[nH]c1=O [FMAU, 1-(2'-deoxy-2'-fluoro-beta-D-arabinofuranosyl)-5-methyluracil, reference compound]
[1]
  toxicity: relatively nontoxic
Toxicity in dogs
  neurotoxicity: very neurotoxic
Toxicity in dogs; FMAU i.v. x 5, FEAU x 10 (preliminary)
  lethal dose: 2.5 mg/kg/day
L-1210 CELLS
  EC50: 28000 nM
Vero cells
  EC50: 2800 nM
[2]; [10]
  suppression of viral replication: equally effective
  toxicity: less severe and delayed toxicity
[2]; 2 mg/kg/day x 5, intraperitoneally
  WHV DNA polymerase activity: complete suppression
[2]; 2 mg/kg/day x 5, intraperitoneally, eventually lethal
  toxicity: severe CNS toxicity
[2]; i.p. 2 mg/kg per day for 7 days or 4 mg/kg per day for 5 days
  persistence of inhibition of WHV replication after cessation of treatment: 20 to 50 days
[2]; i.p. twice daily, 2 mg/kg per day for 7 days or 4 mg/kg per day for 5 days, end of one week following dosage administrations
  woodchuck hepatitis virus DNA polymerase: fallen to background levels
[2]; woodchucks, previous results
  toxicity (previous results): lethal toxicity
HSV-2(G) [3]
  THER. INDEX ID₅₀/ED₉₀ HSV-2: 31
HSV-1(F) [4]
  THER. INDEX ID₅₀/ED₉₀ HSV-1: 67
[5]; Cercopithecine alphaherpesvirus 9, in Primates
  minimal effective dose: ~0.04 mg/kg/day
[5]; monkey, in vivo
  potency against SVV compared with FEAU: about 40 fold
L-1210
  INCORPORATION INTO DNA AT 10μM, L-1210: 0.69 p MOLE/10^6 CELLS/HR
RAT BONE MARROW CELLS
  EC50: 8900 nM
HL-60 CELLS
  EC50: 15400 nM
[6]
  intravenous dose with dose-limiting CNS toxicity: 0.8 mg/kg/day
VERO
  INCORPORATION INTO DNA AT 10μM, VERO: 1.3 p MOLE/10^6 CELLS/HR
[7]
  incorporation into HSV-1-infected Vero cells compared with FEAU: seven-fold greater
[7]; [2-14C] labeled nucleoside
  INCORPORATION INTO DNA AT 10μM, HSV-1 INFECTED VERO CELLS: 3.4 p MOLE/10^6 CELLS/HR
HSV-1(F) [8]; read-out: HSV-1(F) ED₅₀
  EC50: 10 nM
HSV-1(F) [8]; read-out: HSV-1(F) ED₉₀
  EC90: 42 nM
HSV-2(G) [9]; read-out: HSV-2(G) ED₅₀
  EC50: 23 nM
HSV-2(G) [9]; read-out: HSV-2(G) ED₉₀
  EC90: 90 nM
P-815 CELLS
  EC50: 14000 nM
HSV-2 (STRAIN G); twice a day for 4 days from 5 hr after inoculation, calculated on day 21
  MDD: 9.4
HSV-2 (STRAIN G); twice a day for 4 days
  % SURVIVORS: 67%
HSV-2 (STRAIN G); compared to day 1
  %WT GAIN ON DAY 7: 1%
  %WT GAIN ON DAY 14: 4%
  %WT GAIN ON DAY 21: 5%
  %WT GAIN ON DAY 30: 7%
